For one test, the system named is A2780. Description: Growth inhibition of human A2780 cells by Sulforhodamine B assay. Type of test: functional.
The test system of a further test is HL-60. Put plainly: Growth inhibition of human HL60 cells by Sulforhodamine B assay. The format is functional. On the technique in general: Sulforhodamine B stains cellular protein and so reports cell mass.
Another test relates to HepG2. Description: Growth inhibition of human HepG2 cells. Type of test: functional, cell-based.
The target in test [1] is Opioid receptors; mu/kappa/delta (Homo sapiens) (UniProt P41145+P41143+P35372). Description: Inhibition of opioid receptor (unknown origin) at […].
Chain of Opioid receptors; mu/kappa/delta (Homo sapiens) (P35372 whole entry, looked up): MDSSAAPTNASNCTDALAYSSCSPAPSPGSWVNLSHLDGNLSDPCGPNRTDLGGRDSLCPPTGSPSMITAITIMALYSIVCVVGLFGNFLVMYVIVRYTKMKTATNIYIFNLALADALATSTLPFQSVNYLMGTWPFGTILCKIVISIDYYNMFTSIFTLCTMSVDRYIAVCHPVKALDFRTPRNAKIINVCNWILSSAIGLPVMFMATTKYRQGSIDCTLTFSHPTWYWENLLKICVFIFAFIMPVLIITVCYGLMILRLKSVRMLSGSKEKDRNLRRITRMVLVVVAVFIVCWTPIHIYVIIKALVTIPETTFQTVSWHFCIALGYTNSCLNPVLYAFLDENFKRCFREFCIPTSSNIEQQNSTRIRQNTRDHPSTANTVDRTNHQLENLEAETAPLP
Chain of Opioid receptors; mu/kappa/delta (Homo sapiens) (P41143 whole entry, looked up): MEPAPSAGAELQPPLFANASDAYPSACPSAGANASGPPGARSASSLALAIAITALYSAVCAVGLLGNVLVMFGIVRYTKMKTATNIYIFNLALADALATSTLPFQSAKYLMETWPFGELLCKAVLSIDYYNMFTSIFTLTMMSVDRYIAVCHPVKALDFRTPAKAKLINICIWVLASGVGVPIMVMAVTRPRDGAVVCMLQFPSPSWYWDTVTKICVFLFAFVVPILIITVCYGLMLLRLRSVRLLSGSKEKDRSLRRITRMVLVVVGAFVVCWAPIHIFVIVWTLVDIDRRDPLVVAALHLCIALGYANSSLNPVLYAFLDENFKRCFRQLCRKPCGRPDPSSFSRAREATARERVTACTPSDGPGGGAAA
Chain of Opioid receptors; mu/kappa/delta (Homo sapiens) (P41145 whole entry, looked up): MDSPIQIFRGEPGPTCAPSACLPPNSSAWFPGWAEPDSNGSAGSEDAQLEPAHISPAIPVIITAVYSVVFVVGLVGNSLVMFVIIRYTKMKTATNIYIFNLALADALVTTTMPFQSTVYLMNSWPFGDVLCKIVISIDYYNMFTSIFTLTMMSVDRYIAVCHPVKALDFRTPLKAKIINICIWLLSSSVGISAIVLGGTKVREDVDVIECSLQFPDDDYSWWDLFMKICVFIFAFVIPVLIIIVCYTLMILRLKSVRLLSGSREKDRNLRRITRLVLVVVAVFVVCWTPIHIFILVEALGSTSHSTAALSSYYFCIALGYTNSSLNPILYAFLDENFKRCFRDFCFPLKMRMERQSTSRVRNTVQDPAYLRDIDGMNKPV
The nature of test [2]: Inhibition of HIV protease. Details: species or system Human immunodeficiency virus.
A short description of test [3]: Inhibition of thermolysin metalloprotease (unknown origin). Details: species or system Homo sapiens.
A short description of test [4]: Inhibition of serine protease (unknown origin). Details: species or system Homo sapiens.

Calls of active or inactive are those of the source. The calls are words filed in the database; no cut-off is given here.

In the case of `CC(C)(C)[Si](C)(C)O[C@@H]1CCCO[C@@H]1/C=C\CO` (relative stereo), in the test on A2780, the GI50 was more than 100 µM.

Take `COC(=O)/C=C/C[C@H]1OCCC[C@@H]1O` (relative stereo): the GI50 entry with HL-60 is “inactive”.

Regarding `COC(=O)/C=C/C[C@H]1OCCC[C@@H]1OC(C)=O`, the GI50 entry in the test with HL-60 is “inactive”.

`COc1ccc([Si](C)(C)[C@H]2[C@H](CC(=O)N3CCC[C@H]3CO)O[C@@]3(C(=O)N(Cc4cccc(I)c4)c4ccccc43)[C@@H]2C)cc1`: the EC50 with HepG2 came out at 17 µM.

For `COc1ccc(C(CN(C)C)[Si]2(O)CCCC2)cc1` (centres undefined), in test [1], the inhibition was less than 50%.

Molecule `O=C(N[C@H]1c2ccccc2C[C@H]1O)[C@H](Cc1ccccc1)C[Si](O)(O)C[C@@H](Cc1ccccc1)C(=O)N[C@H]1c2ccccc2C[C@H]1O` registered an IC50 in test [2] of 0.014 µM.

Regarding `COC(=O)/C=C/C[C@H]1OCCC[C@@H]1OC(=O)c1ccccc1` (relative stereo), the GI50 result in the test with HL-60 was “inactive”.

In turn, `COc1ccc(C(CN(C)C)[Si]2(O)CCCCC2)cc1` (racemic) yielded an inhibition in test [1] of less than 50%.

For the molecule `COC(=O)/C=C/[C@H]1OCCC[C@H]1O[Si](C)(C)C(C)(C)C`, growth in the test with A2780 was halved (GI50) at 98 µM.

As to `CC(C)C[C@H](NC(=O)[C@H](Cc1ccccc1)C[Si](O)(O)CNC(=O)CCc1ccccc1)C(=O)O`, half-maximal inhibition in test [3] (IC50) was put at 0.041 µM.

Molecule `COC(=O)/C=C/C[C@H]1OCCC[C@@H]1O[Si](C)(C)C(C)(C)C` (relative stereo) registered a GI50 in the test with HL-60 of 22 µM.

Molecule `C[C@H](C[Si](O)(O)[C@H](Cc1ccccc1)NC(=O)[C@@H]1CCCN1)C(N)=O` showed an inhibition constant (Ki) in test [4] of 0.107 µM.

In turn, `CN(C)CC(c1ccccc1)[Si]1(O)CCCCC1` (centres undefined) displayed an inhibition in test [1] of less than 50%.

With `COC(=O)/C=C\[C@H]1OCCC[C@H]1O[Si](C)(C)C(C)(C)C` (relative stereo), it took 7.3 µM to inhibit growth with A2780 by half (GI50).

The term GI50 denotes the concentration that inhibits growth by half. As usually defined, the EC50 is the concentration giving half of the maximal effect. A low value points to a more potent agent. A word on the inhibition: it is the relative decrease from the control value, in per cent. What is called IC50 is the concentration that gives 50% inhibition. A low value points to higher potency. What is called Ki is a dissociation constant, usually derived from enzyme kinetics or from competition with a known ligand. A high value points to lower affinity.

The values above are taken from ChEMBL document CHEMBL2311317, “Organosilicon molecules with medicinal applications” (J Med Chem, 2013).
